The record followed here is patent US6723751B1, “Crystalline forms of the sodium salt of 5-chloro-2-methoxy-N-(2-(4-methoxy-3-methylaminothiocarbonylaminosulfonylpenyl)ethyl)benzamide” (Aventis Pharma Deutschland GmbH, priority 1999, dated 2004).

The nature of data set [1]: Hygroscopicity investigations: water vapor sorption (DVS-1 Dynamic Vapour Sorption Analyser). The class given is physicochemical. The note with it: 25° C., equilibrium. The method, then: The water vapor sorption of the crystal modifications according to the invention was investigated at a temperature of 25° C. on substance samples of about 12 to 16 mg using a DVS-1 Dynamic Vapour Sorption Analyser from Surface Measurement Systems. The measurements were carried out in a nitrogen atmosphere whose relative humidity was altered stepwise. The weight of the sample was recorded at each relative humidity after establishment of the equilibrium, which is when a change in weight of the sample no longer took place. For a series of increasing relative humidities, the water contents of the substance samples, which were determined from the change in weight compared with the starting weights, are indicated in percent.

Data set [2] in a line: Solubility investigations in water. In kind it is physicochemical. The note with it: for Total amount of substance that could be dissolved: in 2 ml of water at 20° C. to 25° C.; for Time to go into solution: portions of 50 to 100 mg stirred into 2.0 ml of water at room temperature. The method, then: The substance was introduced with stirring into 2.0 ml of water at room temperature in portions of 50 to 100 mg. It went into solution in the course of a few minutes with initial clumping. In this way, a total of up to 500 mg of substance could be dissolved in 2 ml of water at 20° C to 25° C.
100 mg of the substance were introduced into 2.0 ml of water, a readily stirrable suspension being formed. […] On warming the suspension to 35° C. to 37° C., the substance went into solution within 20 minutes.
The substance was introduced with stirring into 2.0 ml of water at room temperature in portions of 50 to 100 mg. After introduction, the substance was initially present as a granular, readily stirrable solid that then went into solution in the course of a few minutes. In this way, a total of up to 360 mg of substance could be dissolved in 2 ml of water at 20° C. to 25° C.
The substance was introduced with stirring into 2.0 ml of water at room temperature in portions of 50 to 100 mg. It went into solution in the course of a few minutes with initial clumping. In this way, a total of up to 620 mg of substance could be dissolved in 2 ml of water at 20° C. to 25° C.

Regarding `CNC(=S)[N-]S(=O)(=O)c1cc(CCNC(=O)c2cc(Cl)ccc2OC)ccc1OC.[Na+]` [Crystal Modification 1, sodium salt of 5-chloro-2-methoxy-N-(2-(4-methoxy-3-methylaminothiocarbonylaminosulfonylphenyl)ethyl)benzamide], the Water content in data set [1] (relative humidity 18.4 %) is reported as 0.30%; in data set [1] (relative humidity 39.6 %), 0.65%; in data set [1] (relative humidity 61.0 %), 1.39%; in data set [1] (relative humidity 81.1 %), 2.04%; in data set [1] (relative humidity 91.0 %), 5.72%. Besides, the “Total amount of substance that could be dissolved” value (“Total amount” for short) in data set [2] was “up to 500 mg”. Moreover, the “Time to go into solution” value in data set [2] is given as “a few minutes”.
Consider `CNC(=S)[N-]S(=O)(=O)c1cc(CCNC(=O)c2cc(Cl)ccc2OC)ccc1OC.[Na+]` [Crystal Modification 2, sodium salt of 5-chloro-2-methoxy-N-(2-(4-methoxy-3-methylaminothiocarbonylaminosulfonylphenyl)ethyl)benzamide], for which the Water content in data set [1] (relative humidity 18.5 %) was found to be 0.04%; in data set [1] (relative humidity 39.9 %) it was 0.06%; in data set [1] (relative humidity 61.5 %), 0.08%; in data set [1] (relative humidity 81.9 %) it was 0.10%; in data set [1] (relative humidity 91.7 %), 0.13%. The “State of solution on cooling” value in data set [2] (100 mg in 2.0 ml of water, cooled from 35° C. to 37° C. to 20° C. to 25° C.) was “remained clearly dissolved”. Besides, in data set [2] (100 mg in 2.0 ml of water, suspension warmed to 35° C. to 37° C.), the “Time to go into solution on warming” value was no more than 20 min. The “Dissolution of 100 mg in 2.0 ml of water” value in data set [2] (after stirring at 20° C. to 25° C. for 2 h) is “a clear solution was still not formed”.
On to `CNC(=S)[N-]S(=O)(=O)c1cc(CCNC(=O)c2cc(Cl)ccc2OC)ccc1OC.[Na+]` [Crystal Modification 3, sodium salt of 5-chloro-2-methoxy-N-(2-(4-methoxy-3-methylaminothiocarbonylaminosulfonylphenyl)ethyl)benzamide], for which the Water content turned out to be 0.06% in data set [1] (relative humidity 18.7 %); 0.21% in data set [1] (relative humidity 40.1 %); 0.38% in data set [1] (relative humidity 61.4 %); 0.65% in data set [1] (relative humidity 81.3 %); 0.79% in data set [1] (relative humidity 91.0 %). Moreover, the “Total amount” value in data set [2] is “up to 360 mg”. Also, in data set [2], the “Time to go into solution” value is listed as “a few minutes”.
As for `CNC(=S)[N-]S(=O)(=O)c1cc(CCNC(=O)c2cc(Cl)ccc2OC)ccc1OC.[Na+]` [Crystal Modification 4, sodium salt of 5-chloro-2-methoxy-N-(2-(4-methoxy-3-methylaminothiocarbonylaminosulfonylphenyl)ethyl)benzamide], in data set [2], the “Total amount” value is “up to 620 mg” and the “Time to go into solution” value was “a few minutes”.
